Earlier results as cited in patent US11826320B2, “Treating COVID 19 by using a mixture of cannabinoids in micellized form to lower levels of pro-inflammatory cytokines and reduce risk of cytokine storm” (WSMEF, LLC, priority 2020, dated 2023).

How the values were obtained:
[1] = target: T1, serotonin 5-HT1A receptor (Homo sapiens, UniProt P08908)
T1 sequence (P08908 1-422): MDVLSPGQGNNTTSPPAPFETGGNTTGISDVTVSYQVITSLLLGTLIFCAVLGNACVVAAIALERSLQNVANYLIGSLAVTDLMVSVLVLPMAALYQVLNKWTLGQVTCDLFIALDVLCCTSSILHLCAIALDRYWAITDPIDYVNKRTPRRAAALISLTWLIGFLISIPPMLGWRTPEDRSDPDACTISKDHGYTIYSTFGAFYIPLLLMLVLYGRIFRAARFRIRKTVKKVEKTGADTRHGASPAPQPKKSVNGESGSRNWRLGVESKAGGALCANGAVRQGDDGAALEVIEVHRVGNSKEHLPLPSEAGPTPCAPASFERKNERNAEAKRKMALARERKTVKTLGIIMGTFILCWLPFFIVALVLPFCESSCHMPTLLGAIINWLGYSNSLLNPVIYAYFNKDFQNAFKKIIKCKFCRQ

[2] = target: δ-opioid receptor (Homo sapiens, UniProt P41143)
[3] = target: μ-opioid receptor (Homo sapiens, UniProt P35372)
[4] = target: cannabinoid CB2 receptor (Homo sapiens, UniProt P34972)
[5] = system: SARS-CoV-2; conditions: purified CBD

cannabinoid CB2 receptor, sequence (P34972 whole entry): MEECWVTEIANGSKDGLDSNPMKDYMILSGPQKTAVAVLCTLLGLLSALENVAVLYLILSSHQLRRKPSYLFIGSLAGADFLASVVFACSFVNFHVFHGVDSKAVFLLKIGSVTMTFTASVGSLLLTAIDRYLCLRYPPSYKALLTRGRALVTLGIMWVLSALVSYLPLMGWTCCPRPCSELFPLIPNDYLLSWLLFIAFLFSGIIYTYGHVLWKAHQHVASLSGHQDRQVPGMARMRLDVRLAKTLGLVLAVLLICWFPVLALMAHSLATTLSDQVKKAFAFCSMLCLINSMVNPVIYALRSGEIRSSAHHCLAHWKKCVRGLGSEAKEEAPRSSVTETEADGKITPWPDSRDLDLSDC
δ-opioid receptor, sequence (P41143 whole entry): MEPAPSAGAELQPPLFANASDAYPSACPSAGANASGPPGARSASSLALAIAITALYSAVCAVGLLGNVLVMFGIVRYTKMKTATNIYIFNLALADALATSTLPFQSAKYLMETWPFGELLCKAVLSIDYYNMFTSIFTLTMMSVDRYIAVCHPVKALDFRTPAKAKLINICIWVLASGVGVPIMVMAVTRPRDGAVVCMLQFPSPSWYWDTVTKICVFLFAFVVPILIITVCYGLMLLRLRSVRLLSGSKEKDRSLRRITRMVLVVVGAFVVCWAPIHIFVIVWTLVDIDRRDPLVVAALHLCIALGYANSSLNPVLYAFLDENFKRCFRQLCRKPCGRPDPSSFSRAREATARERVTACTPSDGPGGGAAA
μ-opioid receptor, sequence (P35372 whole entry): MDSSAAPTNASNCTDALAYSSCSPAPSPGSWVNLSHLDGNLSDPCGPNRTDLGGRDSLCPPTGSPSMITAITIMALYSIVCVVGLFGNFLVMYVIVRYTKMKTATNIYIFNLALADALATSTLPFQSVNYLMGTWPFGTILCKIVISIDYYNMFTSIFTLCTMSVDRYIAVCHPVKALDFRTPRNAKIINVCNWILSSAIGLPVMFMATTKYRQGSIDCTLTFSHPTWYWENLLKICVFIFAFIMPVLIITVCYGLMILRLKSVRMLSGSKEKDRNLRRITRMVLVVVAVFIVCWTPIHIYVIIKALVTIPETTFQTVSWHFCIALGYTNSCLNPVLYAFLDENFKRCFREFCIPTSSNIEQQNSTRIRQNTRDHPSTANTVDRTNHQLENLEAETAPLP

In the case of `C=C(C)[C@@H]1CCC(C)=C[C@H]1c1c(O)cc(CCCCC)cc1O` [CBD, cannabidiol], the “action at 5-HT1A receptor” value [1] is listed as “partial agonist”, the “action at δ-opioid receptor” value [2] is listed as “allosteric modulator” and the “action at μ-opioid receptor” value [3] is listed as “allosteric modulator”. The “affinity for CB2 receptor” value [4] was “low affinity” and the “replication of SARS-CoV-2” value [5] was “inhibits replication”.
